The values below are quoted from earlier work in patent US5962660A, “Sialyl Lewis X mimetics incorporating fucopeptides” (The Scripps Research Institute, priority 1997, dated 1999).

For data set [1] the following is noted: because of glycosidase reactions.
For data set [2] the following is noted: for lung injury / tissue accumulation of neutrophils: intravenous infusion of up to 200 μg, rats given intravenous cobra venom.

NeuAcα2→3Galβ1→4(Fucα1→3)GlcNAc [SLe^x]: the “stability in the blood stream” value in data set [1] was “unstable”. Further, the “affinity for E-selectin in vitro” value with E-selectin is recorded as “relatively weak”. Further, in data set [2] (calculated from the 200 μg used), the effective intravenous concentration result was “less than 1 μM”. In data set [2], the lung injury entry is listed as “dramatically reduced” and the “tissue accumulation of neutrophils” value was “diminished”. For the same substance, the IC50 in data set [2] (rats, read-out: IC50 value in vivo for protecting against lung injury) is roughly 1000 nM.
With “NeuAcα2→3Galβ1→4(Fucα1→3)GlcNAcβ1,3Galβ- [pentamer]”, in data set [2], the lung injury result is on record as “dramatically reduced” and the “tissue accumulation of neutrophils” value is reported as “diminished”.
